These results are taken from PubChem BioAssay (NCI).

Each structure is given as a SMILES string.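 Test compounds were applied to cells in 96-well plates for 48 hours at 5 doses. Here, GI50 denotes the concentration required for 50% inhibition of growth. TGI is the concentration that stops growth completely.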

Assay in all cases: NCI tumour cell line growth inhibition, 48 h
The subject of assay [1] is SF-295 CNS.
Assay [2] has as its system HCT-15 colon.
In assay [3] the test system is RXF 393 renal.
For assay [4], the system named is K-562 leukemia.
For assay [5], the system named is OVCAR-5 ovarian.
Assay [6] concerns UO-31 renal.
Assay [7] deals with HS 578T breast.
Assay [8] has as its system KM12 colon.
Assay [9] deals with NCI-H226 lung.
Assay [10] has as its system MALME-3M melanoma.

With `CCN1C(=O)N(CC)C2C1NN=c1s/c(=C\c3cccs3)c(=O)n12` (configuration not stated), the GI50 in [1] was 69 nM; in assay [2], 57.5 nM; in [3] it was 141 nM; in [4], 55.1 nM; in [5], 445 nM; in assay [6], 594 nM. Also, the GI50 is 0.112 µM in [7], 54.5 nM in assay [8] and 2760 nM in assay [9]. Moreover, the TGI in assay [1], in assay [2], in assay [3], in [4], in [5] and in [6] was over 100 µM each time. Besides, the values for the TGI in [8] and in assay [9] were over 82.6 µM and over 23 µM, respectively.
In the case of `Cc1cc(C)nc(NS(=O)(=O)c2ccc(Nc3c4ccccc4nc4c(C(=O)Nc5ccc(S(=O)(=O)Nc6cc(C)on6)cc5)ccc(Cl)c34)cc2)n1`, the TGI in assay [1] was 44.8 µM; in assay [10], 86.5 µM; in [2] it was over 100 µM; in assay [3] it was 32.7 µM; in [4] it was over 100 µM; in assay [5] it was 44.6 µM. The TGI in assay [6] was 45.3 µM; in assay [8] it was 37.1 µM.
For `S=c1nc(C(c2ccccc2)c2ccccc2)[nH][nH]1`, the TGI in [1], in assay [10], in assay [2], in assay [3], in assay [4] and in assay [5] was over 100 µM in each case. The TGI in assay [6], in assay [8] and in [9] was over 100 µM throughout.
Consider `COc1cccc2c1C(=O)c1c(O)c3c(c(O)c1C2=O)C[C@@](O)(C(C)=O)C[C@@H]3OC1CC([N+]([O-])(Cc2ccccc2)Cc2ccccc2)C(O)C(C)O1` (some centres not stated), for which the TGI came to 2.88 µM in assay [1]; 2.76 µM in assay [2]; 2.57 µM in assay [3]; 3.22 µM in [5]; 2.54 µM in assay [6]; 2.9 µM in assay [8].
Take `O=c1/c(=C/c2c(O)ccc3ccccc23)sc2nc3ccccc3n12`: the TGI in [1], in assay [10], in [2], in assay [3], in assay [4] and in [5] was over 100 µM each time. Also, the TGI in [6], in assay [8] and in [9] was over 100 µM in each case.
On to `O=C1C=CC(=O)C2C1Cc1ccccc1C2c1ccccc1` (configuration not stated), for which the TGI in assay [1], in assay [10], in assay [2], in assay [4], in assay [5] and in [6] was over 100 µM throughout. Further, the TGI in assay [8] and in [9] was over 100 µM in each case.
As for `CCC[CH2][Sn]([CH2]CCC)([CH2]CCC)[O]C(=O)C(OC(C)=O)c1ccccc1` (configuration not stated), the GI50 was 163 nM in [1]; 143 nM in assay [10]; 144 nM in [2]; 155 nM in [3]; 109 nM in [4]; 86 nM in assay [5]. For the same molecule, the results for the GI50 in assay [6], in assay [8] and in assay [9] were 157 nM, 109 nM and 178 nM, respectively. Also, the TGI in assay [1] was 0.301 µM; in assay [10], 0.274 µM; in assay [2], 0.28 µM; in assay [3] it was 0.302 µM; in assay [4], 0.349 µM; in assay [5], 0.222 µM. In addition, the TGI in assay [6] amounted to 0.292 µM; in assay [8] it was 0.23 µM; in [9] it was 0.336 µM.
For the molecule `Cn1cnc([N+](=O)[O-])c1Sc1nnnn1C`, the TGI is over 100 µM in [1]; 26.9 µM in [10]; 42.3 µM in [4]; 45.2 µM in assay [5]; 32.6 µM in [6]; over 100 µM in assay [8]. In assay [9], this molecule yielded a TGI of over 100 µM.
For the molecule `O=C1CSC(c2ccc(-c3nc4ccccc4[nH]3)cc2)=N1`, the GI50 is 29500 nM in assay [1]; 16700 nM in assay [2]; 5640 nM in [4]; over 50000 nM in [5]; 19800 nM in assay [6]; 25.1 µM in assay [7]. In addition, the GI50 in assay [8] was 22800 nM. Also, the TGI is over 50 µM in [1]; over 50 µM in assay [2]; 17.5 µM in assay [4]; over 50 µM in [5]; over 50 µM in assay [6]; over 50 µM in [7]. In addition, the TGI in assay [8] is over 50 µM.
For `CSC(=Nc1ccccc1Cl)NC(=O)c1ccc(Br)cc1`, the TGI is over 100 µM in assay [1]; over 100 µM in assay [10]; over 100 µM in assay [2]; over 100 µM in [3]; 45 µM in assay [4]; over 100 µM in [5]. The TGI in [6], in assay [8] and in assay [9] was over 100 µM throughout.
In the case of `NCCOCn1cc(Cc2cccc(OCc3ccccc3)c2)c(=O)[nH]c1=O`, the TGI in assay [1], in [2], in assay [4], in [6], in assay [8] and in assay [9] was over 100 µM each time.
In the case of `Cc1ccc(NC(=O)C(=O)C(C(=O)c2ccc3ccccc3c2)C2OC(=O)c3ccccc32)c(C)c1` (configuration not stated), the TGI in [10] is 22.4 µM; in assay [2], 40.2 µM; in assay [3] it was 22.5 µM; in [4], over 100 µM; in assay [5] it was 36.5 µM; in assay [6], 36.7 µM. Besides, the TGI in [8] was 45.5 µM; in assay [9], 15.8 µM.
For `CCN(CC)CCCOc1ccc2ncnc(Nc3ccc(Oc4cccc(C(F)(F)F)c4)c(Cl)c3)c2c1`, the GI50 in assay [1] was 1730 nM; in assay [10] it was 1570 nM; in assay [3] it was 1450 nM; in assay [4] it was 1210 nM; in assay [5] it was 1560 nM; in [6], 1060 nM. Also, in assay [8], the GI50 is 1770 nM. Also, the TGI in assay [1] was 3.17 µM; in assay [10], 3.04 µM; in assay [3], 2.97 µM; in assay [4], 8.73 µM; in assay [5], 2.99 µM; in assay [6], 2.26 µM. The same molecule came in with a TGI in assay [8] of 3.24 µM.
Turning to `O=C1OC(c2ccccc2)(c2ccccc2)c2ccc3ccc(F)cc3c21`, the TGI in [1], in assay [10], in assay [2], in [3], in assay [4] and in assay [5] was over 100 µM each time. Besides, the TGI in [6], in assay [8] and in assay [9] was over 100 µM each time.
